Test results reported in paper PMC4928820 (Molecular Pharmaceutics, 2015).

Assay type: physicochemical
Settings: 37 °C, mean ± SD, triplicate; for Thermodynamic solubility in Carbitol: cosolvent; for Thermodynamic solubility in Maisine 35-1: long-chain mono-; for Thermodynamic solubility in Maisine 35-1 / Thermodynamic solubility in Capmul MCM EP: di-, triglyceride; for Thermodynamic solubility in Capmul MCM EP: medium-chain mono-; for Thermodynamic solubility in Cremophor EL: surfactant (≤3% w/w water)

CCCSc1ccc2nc(NC(=O)OC)[nH]c2c1 [albendazole]
Thermodynamic solubility in Carbitol: 5.99 ± 0.19 mg/g | Thermodynamic solubility in Maisine 35-1: 3.86 ± 0.21 mg/g | Thermodynamic solubility in Capmul MCM EP: 3.17 ± 0.10 mg/g | Thermodynamic solubility in Cremophor EL: 2.75 ± 0.14 mg/g

Clc1ccccc1C(c1ccccc1)(c1ccccc1)n1ccnc1 [clotrimazole]
Thermodynamic solubility in Carbitol: 135.0 ± 3.57 mg/g | Thermodynamic solubility in Maisine 35-1: 75.4 ± 8.95 mg/g | Thermodynamic solubility in Capmul MCM EP: 136.7 ± 5.94 mg/g | Thermodynamic solubility in Cremophor EL: 44.1 ± 3.01 mg/g

COc1ccc2c(c1OC)C(=O)O[C@@H]2[C@H]1c2c(cc3c(c2OC)OCO3)CCN1C [noscapine]
Thermodynamic solubility in Carbitol: 25.6 ± 1.00 mg/g | Thermodynamic solubility in Maisine 35-1: 5.36 ± 0.61 mg/g | Thermodynamic solubility in Capmul MCM EP: 7.23 ± 0.20 mg/g | Thermodynamic solubility in Cremophor EL: 12.3 ± 0.25 mg/g

COc1ccc2c(c1)c(CC(=O)O)c(C)n2C(=O)c1ccc(Cl)cc1 [indomethacin]
Thermodynamic solubility in Carbitol: 187.4 ± 7.08 mg/g | Thermodynamic solubility in Maisine 35-1: 13.0 ± 0.88 mg/g | Thermodynamic solubility in Capmul MCM EP: 28.6 ± 1.30 mg/g | Thermodynamic solubility in Cremophor EL: 71.6 ± 4.57 mg/g

COC(=O)Nc1nc2ccc(Sc3ccccc3)cc2[nH]1 [fenbendazole]
Thermodynamic solubility in Carbitol: 4.13 ± 0.28 mg/g | Thermodynamic solubility in Maisine 35-1: 0.69 ± 0.11 mg/g | Thermodynamic solubility in Capmul MCM EP: 1.28 ± 0.09 mg/g | Thermodynamic solubility in Cremophor EL: 2.07 ± 0.09 mg/g

C#C[C@]1(O)CC[C@H]2[C@@H]3CCc4cc(O)ccc4[C@H]3CC[C@@]21C [ethinylestradiol]
Thermodynamic solubility in Carbitol: 247.1 ± 8.93 mg/g | Thermodynamic solubility in Maisine 35-1: 22.1 ± 1.83 mg/g | Thermodynamic solubility in Capmul MCM EP: 56.3 ± 1.76 mg/g | Thermodynamic solubility in Cremophor EL: 163.9 ± 10.1 mg/g

O=C(CCCN1CCC(O)(c2ccc(Cl)cc2)CC1)c1ccc(F)cc1 [haloperidol]
Thermodynamic solubility in Carbitol: 27.2 ± 1.82 mg/g | Thermodynamic solubility in Maisine 35-1: 3.57 ± 0.16 mg/g | Thermodynamic solubility in Capmul MCM EP: 13.4 ± 0.51 mg/g | Thermodynamic solubility in Cremophor EL: 11.3 ± 0.82 mg/g

CCCCN(CCCC)CCC(O)c1cc2c(Cl)cc(Cl)cc2c2cc(C(F)(F)F)ccc12 (stereo not shown) [halofantrine]
Thermodynamic solubility in Carbitol: 79.3 ± 7.90 mg/g | Thermodynamic solubility in Maisine 35-1: 71.2 ± 4.58 mg/g | Thermodynamic solubility in Capmul MCM EP: 52.6 ± 3.01 mg/g | Thermodynamic solubility in Cremophor EL: 27.9 ± 0.79 mg/g

CC(=O)[C@H]1CC[C@H]2[C@@H]3CCC4=CC(=O)CC[C@]4(C)[C@H]3CC[C@]12C [progesterone]
Thermodynamic solubility in Carbitol: 67.02 ± 1.36 mg/g | Thermodynamic solubility in Maisine 35-1: 66.2 ± 4.87 mg/g | Thermodynamic solubility in Capmul MCM EP: 99.1 ± 2.94 mg/g | Thermodynamic solubility in Cremophor EL: 41.1 ± 1.27 mg/g

CCOc1nc2cccc(C(=O)O)c2n1Cc1ccc(-c2ccccc2-c2nnn[nH]2)cc1 [candesartan]
Thermodynamic solubility in Carbitol: 20.5 ± 1.26 mg/g | Thermodynamic solubility in Maisine 35-1: ≤0.41 mg/g | Thermodynamic solubility in Capmul MCM EP: 3.19 ± 0.14 mg/g | Thermodynamic solubility in Cremophor EL: 11.3 ± 0.67 mg/g

O=C(O)c1cc(/N=N/c2ccc(S(=O)(=O)Nc3ccccn3)cc2)ccc1O [sulfasalazine]
Thermodynamic solubility in Carbitol: 16.4 ± 0.72 mg/g | Thermodynamic solubility in Maisine 35-1: 0.16 ± 0.02 mg/g | Thermodynamic solubility in Capmul MCM EP: 3.16 ± 0.06 mg/g | Thermodynamic solubility in Cremophor EL: 13.1 ± 1.02 mg/g

COc1cc(C)c(/C=C/C(C)=C/C=C/C(C)=C/C(=O)O)c(C)c1C [acitretin]
Thermodynamic solubility in Carbitol: 3.52 ± 0.20 mg/g | Thermodynamic solubility in Maisine 35-1: 0.62 ± 0.06 mg/g | Thermodynamic solubility in Capmul MCM EP: 1.54 ± 0.10 mg/g | Thermodynamic solubility in Cremophor EL: 2.85 ± 0.14 mg/g

Cc1c(Cl)cccc1Nc1ccccc1C(=O)O [tolfenamic acid]
Thermodynamic solubility in Carbitol: 85.5 ± 4.29 mg/g | Thermodynamic solubility in Maisine 35-1: 14.1 ± 1.18 mg/g | Thermodynamic solubility in Capmul MCM EP: 26.0 ± 1.45 mg/g | Thermodynamic solubility in Cremophor EL: 70.6 ± 3.87 mg/g

CCC(C)n1ncn(-c2ccc(N3CCN(c4ccc(OCC5COC(Cn6cncn6)(c6ccc(Cl)cc6Cl)O5)cc4)CC3)cc2)c1=O (stereo not shown) [itraconazole]
Thermodynamic solubility in Carbitol: 6.30 ± 0.55 mg/g | Thermodynamic solubility in Maisine 35-1: 2.26 ± 0.16 mg/g | Thermodynamic solubility in Capmul MCM EP: 5.60 ± 0.67 mg/g | Thermodynamic solubility in Cremophor EL: 1.92 ± 0.29 mg/g

Cc1cc(-n2c(=O)[nH]c(=O)n(C)c2=O)ccc1Oc1ccc(SC(F)(F)F)cc1 [toltrazuril]
Thermodynamic solubility in Carbitol: 50.2 ± 2.47 mg/g | Thermodynamic solubility in Maisine 35-1: 7.90 ± 1.03 mg/g | Thermodynamic solubility in Capmul MCM EP: 11.8 ± 0.59 mg/g | Thermodynamic solubility in Cremophor EL: 19.7 ± 3.11 mg/g

OCCN(CCO)c1nc(N2CCCCC2)c2nc(N(CCO)CCO)nc(N3CCCCC3)c2n1 [dipyridamole]
Thermodynamic solubility in Carbitol: 43.1 ± 2.40 mg/g | Thermodynamic solubility in Maisine 35-1: 3.02 ± 0.16 mg/g | Thermodynamic solubility in Capmul MCM EP: 12.3 ± 0.36 mg/g | Thermodynamic solubility in Cremophor EL: 9.57 ± 0.29 mg/g

NC(=O)N1c2ccccc2C=Cc2ccccc21 [carbamazepine]
Thermodynamic solubility in Carbitol: 82.9 ± 1.80 mg/g | Thermodynamic solubility in Maisine 35-1: 30.0 ± 1.66 mg/g | Thermodynamic solubility in Capmul MCM EP: 55.5 ± 3.23 mg/g | Thermodynamic solubility in Cremophor EL: 34.5 ± 1.06 mg/g

COC1=CC(=O)C[C@@H](C)[C@]12Oc1c(Cl)c(OC)cc(OC)c1C2=O [griseofulvin]
Thermodynamic solubility in Carbitol: 18.9 ± 0.99 mg/g | Thermodynamic solubility in Maisine 35-1: 2.43 ± 0.05 mg/g | Thermodynamic solubility in Capmul MCM EP: 5.56 ± 0.21 mg/g | Thermodynamic solubility in Cremophor EL: 9.70 ± 0.36 mg/g

COc1ccc(Cl)cc1C(=O)NCCc1ccc(S(=O)(=O)NC(=O)NC2CCCCC2)cc1 [glibenclamide]
Thermodynamic solubility in Carbitol: 21.1 ± 0.46 mg/g | Thermodynamic solubility in Maisine 35-1: 0.52 ± 0.14 mg/g | Thermodynamic solubility in Capmul MCM EP: 5.49 ± 0.26 mg/g | Thermodynamic solubility in Cremophor EL: 11.2 ± 1.01 mg/g

CCOC(=O)C1=C(C)NC(C)=C(C(=O)OC)C1c1cccc(Cl)c1Cl (stereo not shown) [felodipine]
Thermodynamic solubility in Carbitol: 217.2 ± 16.0 mg/g | Thermodynamic solubility in Maisine 35-1: 37.7 ± 1.37 mg/g | Thermodynamic solubility in Capmul MCM EP: 80.2 ± 2.22 mg/g | Thermodynamic solubility in Cremophor EL: 125.1 ± 6.23 mg/g

Cc1cccc(Nc2ccccc2C(=O)O)c1C [mefenamic acid]
Thermodynamic solubility in Carbitol: 43.6 ± 1.52 mg/g | Thermodynamic solubility in Maisine 35-1: 5.38 ± 0.40 mg/g | Thermodynamic solubility in Capmul MCM EP: 9.63 ± 0.40 mg/g | Thermodynamic solubility in Cremophor EL: 30.7 ± 0.89 mg/g

O=C(O)c1cc(-c2ccc(F)cc2F)ccc1O [diflunisal]
Thermodynamic solubility in Carbitol: 286.3 ± 13.4 mg/g | Thermodynamic solubility in Maisine 35-1: 31.6 ± 0.99 mg/g | Thermodynamic solubility in Capmul MCM EP: 53.4 ± 1.29 mg/g | Thermodynamic solubility in Cremophor EL: 157.9 ± 6.54 mg/g

CCN(CC)C(=S)SSC(=S)N(CC)CC [disulfiram]
Thermodynamic solubility in Carbitol: 162.6 ± 8.46 mg/g | Thermodynamic solubility in Maisine 35-1: 49.0 ± 3.05 mg/g | Thermodynamic solubility in Capmul MCM EP: 47.2 ± 2.05 mg/g | Thermodynamic solubility in Cremophor EL: 88.8 ± 3.66 mg/g

CC(C)(Oc1ccc(CCNC(=O)c2ccc(Cl)cc2)cc1)C(=O)O [bezafibrate]
Thermodynamic solubility in Carbitol: 43.0 ± 1.83 mg/g | Thermodynamic solubility in Maisine 35-1: 1.55 ± 0.05 mg/g | Thermodynamic solubility in Capmul MCM EP: 6.36 ± 0.26 mg/g | Thermodynamic solubility in Cremophor EL: 37.9 ± 5.23 mg/g

O=C(C1CCCCC1)N1CC(=O)N2CCc3ccccc3C2C1 (stereo not shown) [praziquantel]
Thermodynamic solubility in Carbitol: 116.9 ± 14.8 mg/g | Thermodynamic solubility in Maisine 35-1: 85.9 ± 5.32 mg/g | Thermodynamic solubility in Capmul MCM EP: 184.9 ± 12.4 mg/g | Thermodynamic solubility in Cremophor EL: 45.4 ± 3.51 mg/g

O=C(Nc1ccc([N+](=O)[O-])cc1Cl)c1cc(Cl)ccc1O [niclosamide]
Thermodynamic solubility in Carbitol: 49.6 ± 2.62 mg/g | Thermodynamic solubility in Maisine 35-1: 3.97 ± 0.19 mg/g | Thermodynamic solubility in Capmul MCM EP: 10.1 ± 0.40 mg/g | Thermodynamic solubility in Cremophor EL: 44.1 ± 1.75 mg/g

CCOc1nc2cccc(C(=O)OC(C)OC(=O)OC3CCCCC3)c2n1Cc1ccc(-c2ccccc2-c2nnn[nH]2)cc1 (stereo not shown) [candesartan cilexetil]
Thermodynamic solubility in Carbitol: 77.0 ± 2.04 mg/g | Thermodynamic solubility in Maisine 35-1: 1.99 ± 0.19 mg/g | Thermodynamic solubility in Capmul MCM EP: 9.07 ± 0.38 mg/g | Thermodynamic solubility in Cremophor EL: 26.4 ± 1.46 mg/g

CC(C)/N=c1\cc2n(-c3ccc(Cl)cc3)c3ccccc3nc-2cc1Nc1ccc(Cl)cc1 [clofazimine]
Thermodynamic solubility in Carbitol: 22.8 ± 0.54 mg/g | Thermodynamic solubility in Maisine 35-1: 11.7 ± 0.24 mg/g | Thermodynamic solubility in Capmul MCM EP: 16.3 ± 0.44 mg/g | Thermodynamic solubility in Cremophor EL: 15.9 ± 0.83 mg/g
